# From patent EP0501442B1, “8-chloro-benzothiazepine-compound for prophylaxis and treatment of sequelae of cerebral neurocyte necrosis” (priority 1991, dated 1992)
# Experiment: Acute oral toxicity (50 % lethal dose) in mice
# Conditions: mouse, in vivo, orally administered to mice, read-out: 50 % lethal dose (LD₅₀)
# Description: Further, the benzothiazepine derivative (I) or a pharmacologically acceptable salt thereof has low toxicity and high safety. For example, when 2-(4-methoxyphenyl)-3-acetoxy-5-[2-(dimethylamino)ethyl]-8-chloro-2,3-dihydro-1,5-benzothiazepin-4(5H)-one·maleate is orally administered to mice, its 50 % lethal dose (LD₅₀) was about 800 mg/kg.
structure (smiles),measurement,value
"COc1ccc([C@@H]2Sc3cc(Cl)ccc3N(CCN(C)C)C(=O)[C@@H]2OC(C)=O)cc1 [(+)-cis-2-(4-methoxyphenyl)-3-acetoxy-5-[2-(dimethylamino)ethyl]-8-chloro-2,3-dihydro-1,5-benzothiazepin-4(5H)-one·maleate]",LD50,~800 mg/kg
